Key:
GtACR1 [1] = target: T1, GtACR1 (Guillardia theta, UniProt L1J207); assay: visible absorption spectrum of purified protein; assay type: binding; details: covalent (retinal protonated Schiff base); 10 mM MOPS pH 7, 1 M NaCl, 0.05% DDM
T1 construct: gene GUITHDRAFT_111593; 295 residues, C-terminal 8xHis tag, codon-optimised gene, expressed in Pichia pastoris SMD1168H cells; also purified in DDM

GtACR1 [2] = target: T1, GtACR1; assay: light-induced pH change of yeast cell suspension (pH electrode); assay type: cell-based; details: 300 mM NaNO3; 530 nm LED 10 mW/cm^2; initial pH about 5; about 16 °C

T1 sequence (L1J207 entry or part of it): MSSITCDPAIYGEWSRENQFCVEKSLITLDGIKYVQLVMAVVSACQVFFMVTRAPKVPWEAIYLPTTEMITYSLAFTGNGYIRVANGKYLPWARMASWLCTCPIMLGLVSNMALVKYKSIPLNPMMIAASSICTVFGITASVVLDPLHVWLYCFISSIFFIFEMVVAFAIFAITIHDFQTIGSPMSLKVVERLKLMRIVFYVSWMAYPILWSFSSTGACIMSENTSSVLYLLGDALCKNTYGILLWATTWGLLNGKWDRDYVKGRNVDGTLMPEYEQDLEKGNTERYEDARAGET

Compound	visible absorption spectrum of purified protein (GtACR1 [1])	light-induced pH change of yeast cell suspension (pH electrode) (GtACR1 [2])
CC1=C(/C=C/C(C)=C/C=C/C(C)=C/C=O)C(C)(C)CCC1 [all-trans-retinal]	Visible absorption spectrum of purified GtACR1	
O=[N+]([O-])O [NO3^−]		significant transport activities were obtained for the anions except for F^− and Asp^−

— paper PMC8041784, “Preference of Proteomonas sulcata anion channelrhodopsin for NO3^− revealed using a pH electrode method” (Scientific Reports, 2021)
